These results are taken from US20210069189A1, “TREATMENT OF NEURODEGENERATIVE DISEASES” (BENEVOLENTAI BIO LIMITED, priority 2017, published 2021).

The subject of one series is ALS. The conditions noted are these: ALS patients; cited from earlier work.
Series [1] deals with murine Hb9-GFP+ motor neurons co-cultured with ALS patient-derived iAstrocytes. The experiment in a line: ALS patient iAstrocyte / mouse Hb9-GFP+ motor neuron co-culture, motor neuron survival. The class given is cell-based, human iAstrocytes. To be noted: iAstrocytes pre-treated 24 hours with various concentrations; viable motor neurons at 72 h as percentage of 24 h, normalised to DMSO control; FIG. 2. As for the experimental part: ALS iAstrocytes were pre-treated with various concentrations of nilotinib, bafetinib or bosutinib for 24 hours, prior to murine Hb9-GFP motor neuron seeding in co-culture. The number of viable motor neurons was then measured 24 and 72 hours after motor neuron seeding, and the percentage motor neuron survival was calculated, and then normalised to the untreated control of the respective line. *P<0.05, **P<0.01, ***P<0.001. One-way ANOVA with Dunnett's post-hoc test. Data are mean±SD. n=5-6.
This example describes the effect of nilotinib, bafetinib and bosutinib on motor neuron survival in an in vitro model of ALS. This model uses human fibroblast-derived astrocytes and mouse Hb9−GFP+ motor neurons in co-culture (Meyer et al., 2014, PNAS 111, 829-832). The fibroblasts were reprogrammed to induced neural progenitor cells (iNPCs), which were differentiated into Astrocytes. Astrocytes derived from ALS patients cause death of the wild-type Hb9−GFP+ mouse motor neurons in co-culture, a property not seen in astrocytes derived from normal (non-ALS) patients. […]
3,000 human iAstrocytes were seeded per well on fibronectin-coated 384-well plates. […] Hb9− GFP+ motor neurons were imaged after 24 and 72 hours using an INCELL analyser 2000 (GE Healthcare), and the number of viable motor neurons was counted using the INCELL analyser software (GE Healthcare).
The number of viable motor neurons (defined as GFP+ motor neurons with at least 1 axon) 25 that survived after 72 hours in co-culture was calculated as a percentage of the number of viable motor neurons after 24 hours in co-culture. […]

Series [2] deals with SOD1^G93A mouse model of ALS. The conditions noted are these: cited from earlier work.
A further series deals with P-glycoprotein (P-gp) (Homo sapiens, UniProt P08183). To be noted: cited from earlier work.
P-glycoprotein (P-gp), sequence (P08183 whole entry): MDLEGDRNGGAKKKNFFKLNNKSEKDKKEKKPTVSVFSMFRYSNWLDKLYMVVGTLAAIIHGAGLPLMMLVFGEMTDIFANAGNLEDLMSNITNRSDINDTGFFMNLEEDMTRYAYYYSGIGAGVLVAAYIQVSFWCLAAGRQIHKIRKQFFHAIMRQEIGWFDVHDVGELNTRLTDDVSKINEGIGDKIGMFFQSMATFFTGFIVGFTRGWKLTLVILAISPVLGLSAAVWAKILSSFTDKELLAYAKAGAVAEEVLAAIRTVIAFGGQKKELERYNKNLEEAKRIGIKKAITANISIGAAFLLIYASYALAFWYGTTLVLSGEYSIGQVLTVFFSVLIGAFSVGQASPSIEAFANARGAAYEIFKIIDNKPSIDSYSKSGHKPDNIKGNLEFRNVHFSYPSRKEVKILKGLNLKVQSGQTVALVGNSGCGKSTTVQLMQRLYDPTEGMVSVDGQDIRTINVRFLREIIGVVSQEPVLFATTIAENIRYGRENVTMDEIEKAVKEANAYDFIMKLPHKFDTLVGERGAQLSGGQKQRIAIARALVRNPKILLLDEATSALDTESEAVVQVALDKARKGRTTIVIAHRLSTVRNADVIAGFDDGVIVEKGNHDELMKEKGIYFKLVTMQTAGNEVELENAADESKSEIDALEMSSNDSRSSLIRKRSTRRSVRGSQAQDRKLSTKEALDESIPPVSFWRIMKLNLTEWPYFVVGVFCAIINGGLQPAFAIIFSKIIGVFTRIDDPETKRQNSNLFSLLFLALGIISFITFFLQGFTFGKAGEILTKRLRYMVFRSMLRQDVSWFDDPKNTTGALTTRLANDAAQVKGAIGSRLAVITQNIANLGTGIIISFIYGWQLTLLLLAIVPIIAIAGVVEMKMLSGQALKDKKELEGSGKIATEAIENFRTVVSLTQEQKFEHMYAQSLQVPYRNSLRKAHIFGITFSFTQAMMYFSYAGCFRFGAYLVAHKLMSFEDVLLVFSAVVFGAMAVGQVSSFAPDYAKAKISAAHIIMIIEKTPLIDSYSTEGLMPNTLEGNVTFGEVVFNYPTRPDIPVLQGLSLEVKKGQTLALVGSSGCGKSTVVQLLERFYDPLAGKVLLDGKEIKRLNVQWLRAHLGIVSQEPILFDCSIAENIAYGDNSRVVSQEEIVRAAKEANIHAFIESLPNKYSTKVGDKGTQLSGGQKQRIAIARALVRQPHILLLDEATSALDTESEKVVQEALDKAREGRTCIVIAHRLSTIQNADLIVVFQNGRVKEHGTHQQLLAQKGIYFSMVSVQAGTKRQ

Consider `Nc1nc2ccc(OC(F)(F)F)cc2s1` [Riluzole], for which, in the series on ALS, the prolongation of life is 2-3 months.
In the case of `C=CC(=O)Nc1cc2c(Nc3ccc(F)c(Cl)c3)ncnc2cc1OCCCN1CCOCC1` [canertinib], the motor neuron survival entry in series [1] is reported as “no such increase in survival”.
In the case of `C#Cc1cccc(Nc2ncnc3cc(OCCOC)c(OCCOC)cc23)c1` [erlotinib], in series [2], the lifespan entry is given as “failed to extend lifespan”; the “penetration into the central nervous system” value is “penetrated into the central nervous system”; the “protection of motor synapses” value is recorded as “did not protect motor synapses”; the “symptom delay (disease onset and progression)” value was “modest yet statistically significant symptom delay”.
`Cc1ccc(NC(=O)c2ccc(CN3CCN(C)CC3)cc2)cc1Nc1nc(-c2cccnc2)cs1` [masitinib]: the motor neuron survival entry in series [1] was “no such increase in survival”.
As for `Cc1cn(-c2cc(NC(=O)c3ccc(C)c(Nc4nccc(-c5cccnc5)n4)c3)cc(C(F)(F)F)c2)cn1` [nilotinib], the motor neuron survival result in series [1] is on record as “dose-dependent increase in motor neuron survival”. Besides, at P-glycoprotein (P-gp), the P-glycoprotein substrate result is on record as “P-glycoprotein (P-gp) substrate”.
